Tests used:
[1] = test system: CXCR4; test: CXCR4 protein expression, Western blot of whole-cell extracts of gastric cancer cells; assay type: cell-based; conditions: 5.0 μm, 6 h, line not given
Description: Different tumor cell types, namely gastric cancer (AGS, MKN45, and SNU16) cells were incubated with different components of the composition as well as a combination according to the finished product for 6 h. Whole-cell extracts were prepared and analyzed by Western blot analysis using antibody against CXCR4. The same blots were stripped and reprobed with β-actin antibody to show equal protein loading. Representative results of three independent experiments are shown.
The same experiment was carried out to find out whether the composition downregulates expression of CXCR4 in gastric (AGS, MKN45, and SNU16) cancer cell lines, which has never been investigated before. Cells were treated with 5 μm active ingredients of Ex. 6 and its major active components for 6 h before assessing the resultant effect on CXCR4 expression.
(A) MDA-MB-231 (2×10^5 cells) were seeded in the top-chamber of the Matrigel. After pre-incubation with or without the composition according to Ex. 6 and its major active components (5 μm) for 6 h, transwell chambers were then placed into the wells of a 24-well plate, in which we had added either the basal medium only or basal medium containing 10 ng/ml CXCL12 for 24 h. After incubation, they were assessed for cell invasion. Columns indicate mean percentage of invaded cells; bars, S.E. *, […]. (B) AGS (2×10^5 cells) were seeded in the top-chamber of the Matrigel. After preincubation with or without the composition and its major active components (5 μm) for 6 h, transwell chambers were then placed into the wells of a 24-well plate, in which we had added either the basal medium only or basal medium containing […] CXCL12 for 24 h. After incubation, the chambers were assessed for cell invasion. Columns indicate mean percentage of invaded cells; bars, S.E. *, […]. Representative results of three independent experiments are shown. […] Total RNA was isolated and analyzed by RT-PCR assay. […] Whole-cell extracts were prepared and analyzed by Western blot analysis using antibodies against CXCR4. […]

[2] = test system: CXCR4 mRNA; test: CXCR4 mRNA expression by RT-PCR in AGS cells; assay type: cell-based; conditions: 5 μm
Description: (§1) (A) MDA-MB-231 (2×10^5 cells) were seeded in the top-chamber of the Matrigel. After pre-incubation with or without the composition according to Ex. 6 and its major active components (5 μm) for 6 h, transwell chambers were then placed into the wells of a 24-well plate, in which we had added either the basal medium only or basal medium containing 10 ng/ml CXCL12 for 24 h. After incubation, they were assessed for cell invasion. Columns indicate mean percentage of invaded cells; bars, S.E. *, P>0.05. (B) AGS (2×10^5 cells) were seeded in the top-chamber of the Matrigel. After preincubation with or without the composition and its major active components (5 μm) for 6 h, transwell chambers were then placed into the wells of a 24-well plate, in which we had added either the basal medium only or basal medium containing 100 ng/ml CXCL12 for 24 h. After incubation, the chambers were assessed for cell invasion. Columns indicate mean percentage of invaded cells; bars, S.E. *, P>0.05. Representative results of three independent experiments are shown. […] AGS cells were treated with 5 μm of the composition and its major active components for indicated times. Total RNA was isolated and analyzed by RT-PCR assay. […] Representative results of three independent experiments are shown. […] Cells were incubated with 5 μm of the active ingredients of the composition and its single major active components for indicated times. Whole-cell extracts were prepared and analyzed by Western blot analysis using antibodies against CXCR4. The same blots were stripped and reprobed with β-actin antibody to show equal protein loading. Representative results of three independent experiments are shown.

[3] = test system: AGS cells; test: Matrigel transwell invasion assay with CXCL12, AGS; assay type: cell-based; conditions: 5 μm, cell line not given
Description: as §1, with “[…],” for “After preincubation with or without the composition and its major active components (5 μm) for 6 h,”, “which we had added either the basal medium only or basal medium containing 100 ng/ml CXCL12 for 24 h.” left out

[4] = test system: CXCR4; test: CXCR4 protein expression, Western blot of whole-cell extracts of gastric cancer cells; assay type: cell-based; conditions: 6 h, line not given
[5] = cited from earlier work
[6] = test system: gram positive and gram negative, aerobic, and anaerobic bacteria; conditions: in vivo or in vitro; cited from earlier work

Structure (SMILES) | Fold change (CXCR4 expression) [1] | mRNA fold change (CXCR4) ([2]; time 0 hours) | mRNA fold change (CXCR4) ([2]; time 2 hours) | mRNA fold change (CXCR4) ([2]; time 6 hours) | mRNA fold change (CXCR4) ([2]; time 8 hours) | mRNA fold change (CXCR4) ([2]; time 12 hours) | mRNA fold change (CXCR4) ([2]; time 24 hours) | Percentage of invade cells ([3]; time 0 hours) [%] | Percentage of invade cells ([3]; time 2 hours) [%] | Percentage of invade cells ([3]; time 6 hours) [%] | Percentage of invade cells ([3]; time 8 hours) [%] | Percentage of invade cells ([3]; time 12 hours) [%] | Percentage of invade cells ([3]; time 24 hours) [%] | Fold change (CXCR4 expression) ([4]; 0.5 μm) | Fold change (CXCR4 expression) ([4]; 1.0 μm) | Fold change (CXCR4 expression) ([4]; 2.5 μm) | cumulative dose shown safe and well tolerated ([5]; cumulative doses) [g] | systemic dose shown safe and well tolerated ([5]; systemic doses) | Resistance (in words) [6]
CC[C@H]1OC(=O)[C@H](C)[C@@H](O[C@H]2C[C@@](C)(OC)[C@@H](O)[C@H](C)O2)[C@H](C)[C@@H](O[C@@H]2O[C@H](C)C[C@H](N(C)C)[C@H]2O)[C@](C)(OC)C[C@@H](C)C(=O)[C@H](C)[C@@H](O)[C@]1(C)O [CLR, clarithromycin] | 0.44 ± 0.01 | 0.90 ± 0.05 | 0.78 ± 0.02 | 0.63 ± 0.03 | 0.50 ± 0.03 | 0.42 ± 0.03 | 0.37 ± 0.03 | 85.23 ± 11.51 | 80.22 ± 10.25 | 77.26 ± 9.14 | 62.27 ± 6.50 | 55.20 ± 7.10 | 48.20 ± 6.15 | 1.3 ± 0.01 | 0.97 ± 0.01 | 0.79 ± 0.04 |  |  | 
COc1ccc2[nH]c([S+]([O-])Cc3ncc(C)c(OC)c3C)nc2c1 (stereo not drawn) [PPI, Omeprazol] | 0.46 ± 0.02 | 0.92 ± 0.02 | 0.88 ± 0.021 | 0.67 ± 0.06 | 0.54 ± 0.04 | 0.41 ± 0.04 | 0.38 ± 0.04 | 85.23 ± 11.51 | 82.10 ± 15.10 | 74.11 ± 6.25 | 60.12 ± 11.50 | 49.25 ± 7.26 | 39.25 ± 4.15 | 1.4 ± 0.02 | 0.96 ± 0.03 | 0.81 ± 0.05 |  |  | 
CCS(=O)(=O)CCn1c([N+](=O)[O-])cnc1C [TND, tinidazole] | 0.53 ± 0.03 | 0.94 ± 0.02 | 0.83 ± 0.01 | 0.79 ± 0.04 | 0.65 ± 0.03 | 0.51 ± 0.03 | 0.39 ± 0.03 | 85.23 ± 11.51 | 81.10 ± 14.20 | 72.55 ± 8.10 | 64.65 ± 10.11 | 51.33 ± 8.20 | 42.25 ± 8.55 | 1.4 ± 0.01 | 0.98 ± 0.01 | 0.85 ± 0.01 |  |  | 
O=S1(=O)CCN(CN2CCS(=O)(=O)NC2)CN1 [Taurolidine, [bis(1,1-dioxoperhydro-1,2,4-thiadiazinyl-4)]-methane] |  |  |  |  |  |  |  |  |  |  |  |  |  |  |  |  | ≥ 300 | exceeding 40 g/day | has not been observed
